The text below walks through data of patent publication US9062061B2, “Compound having PARP inhibitory activity” (SANTEN PHARMACEUTICAL CO., LTD., priority 2011, dated 2015).

Counter-ions that a name gives are not always drawn.

The assay concerns the target T1, human recombinant PARP1 (Homo sapiens, UniProt P09874).
T1 construct: purchased Trevigen 4677-096-K
The assay can be described thus: PARP inhibitory activity measurement test (Universal Colorimetric PARP Assay kit, Trevigen). It is filed as biochemical. The conditions noted are these: compound concentration: 10 μM, read-out: PARP1 inhibition rate (%). As for the experimental part: For evaluating PARP inhibitory activity of the present compound, inhibitory activity of each test compound against human recombinant PARP 1 was measured using Universal Colorimetric PARP Assay kit with Histone-Coated Strip Wells (Cat No.: 4677-096-K) available from Trevigen. The test was conducted according to the procedure in the instruction attached to this kit. The concrete operation will be described below.
After dissolving the test compound in dimethyl sulfoxide, the solution was diluted with a PARP buffer attached to the kit to prepare a 50 μM test compound solution.
In each well of a histone-coated 96-well plate, 10 μL of the test compound solution (50 μM), 15 μL of human recombinant PARP1 (33.3 Unit/mL) and 25 μL of PARP cocktail (containing activated DNA and biotinated NAD) were added, and incubated at room temperature for 1 hour (final reaction amount: 50 μL). Each well was washed twice with 200 μL of 0.1% Triton-X-containing Dulbecco's phosphate buffer, and further washed twice with 200 μL of Dulbecco's phosphate buffer, and then 50 μL of Strep-HRP was added, followed by incubation at room temperature for 1 hour. Each well was washed twice with 200 μL of 0.1% Triton-X-containing Dulbecco's phosphate buffer, and further washed twice with 200 μL of Dulbecco's phosphate buffer, and then 50 μL of TACS-Sapphire coloriometric substrate was added, followed by incubation at room temperature for 15 minutes. After stopping the reaction by adding 50 μL of 0.2 M HCl, absorbance at 450 nm (Abs 450) was measured by a microplate reader. The number of examples in each group was 1 to 2.
Using a well into which dimethyl sulfoxide and a PARP buffer were added in place of the test compound solution and human recombinant PARP1, the above operation was conducted as a negative control.
Using a well into which a PARP buffer containing dimethyl sulfoxide was added in place of the test compound solution, the above operation was conducted as a positive control.
PARP1 inhibition rate (%) was calculated according to the following Formula 1. PARP1 inhibition rate(%)=(AbsB−AbsX)/(AbsB−AbsA)×100 [Formula 1]
AbsA: absorbance of negative control (Abs 450)
AbsB: absorbance of positive control (Abs 450)
AbsX: absorbance of test compound-treated group (Abs 450)

T1 sequence (P09874 whole entry): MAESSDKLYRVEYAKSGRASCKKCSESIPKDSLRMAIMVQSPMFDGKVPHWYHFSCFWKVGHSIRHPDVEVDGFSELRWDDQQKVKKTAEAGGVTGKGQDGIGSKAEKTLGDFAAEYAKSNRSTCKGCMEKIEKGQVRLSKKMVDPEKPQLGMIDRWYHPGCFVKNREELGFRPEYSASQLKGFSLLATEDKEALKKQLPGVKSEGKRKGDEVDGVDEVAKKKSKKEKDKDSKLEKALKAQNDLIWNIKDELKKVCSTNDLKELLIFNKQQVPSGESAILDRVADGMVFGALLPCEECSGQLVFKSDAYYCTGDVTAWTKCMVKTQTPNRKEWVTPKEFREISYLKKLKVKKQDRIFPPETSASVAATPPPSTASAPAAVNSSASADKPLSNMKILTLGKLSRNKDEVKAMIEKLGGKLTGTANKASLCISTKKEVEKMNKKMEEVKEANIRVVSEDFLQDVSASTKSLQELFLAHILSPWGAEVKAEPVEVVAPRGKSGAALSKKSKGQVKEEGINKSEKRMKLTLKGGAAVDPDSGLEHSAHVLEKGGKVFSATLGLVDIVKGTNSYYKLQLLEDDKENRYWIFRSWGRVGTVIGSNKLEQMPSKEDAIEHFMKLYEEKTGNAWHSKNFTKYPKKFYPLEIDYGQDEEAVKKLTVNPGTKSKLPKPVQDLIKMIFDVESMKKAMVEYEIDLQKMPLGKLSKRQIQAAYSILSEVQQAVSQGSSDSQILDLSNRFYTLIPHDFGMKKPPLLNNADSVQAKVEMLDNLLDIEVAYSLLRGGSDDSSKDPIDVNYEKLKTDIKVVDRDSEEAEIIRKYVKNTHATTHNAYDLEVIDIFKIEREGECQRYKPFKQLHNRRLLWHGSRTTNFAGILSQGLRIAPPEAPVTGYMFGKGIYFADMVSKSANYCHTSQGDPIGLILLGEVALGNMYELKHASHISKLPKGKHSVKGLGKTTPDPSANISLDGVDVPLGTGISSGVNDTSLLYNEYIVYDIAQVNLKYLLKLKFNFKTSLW

For `O=c1[nH]c2cc(CN3CCN(Cc4ccccc4)CC3)cn2c2ccccc12` [Compound 2-11, 2-(4-Benzylpiperazin-1-ylmethyl)pyrrolo[1,2-a]quinazolin-5(4H)-one], the inhibition – broadly, the percentage by which the read-out fell short of the control – at 10 µM turned out to be 99%.
For `O=c1[nH]c2cc(CN3CCN(Cc4ccc(F)cc4)CC3)cn2c2ccccc12` [Compound 2-13, 2-[4-(4-Fluorobenzyl)piperazin-1-ylmethyl]pyrrolo[1,2-a]quinazolin-5(4H)-one] the value was 96%; for `O=c1[nH]c2cc(CN3CCN(c4cccc(F)c4)CC3)cn2c2ccccc12` [Compound 2-15, 2-[4-(3-Fluorophenyl)piperazin-1-ylmethyl]pyrrolo[1,2-a]quinazolin-5(4H)-one], 98%.
For `O=c1[nH]c2cc(CN3CCN(c4cccnc4)CC3)cn2c2ccccc12` [Compound 2-18, 2-[4-(Pyridine-3-yl)piperazin-1-ylmethyl]pyrrolo[1,2-a]quinazolin-5(4H)-one], the inhibition at 10 µM was 95%.
Turning to `CN(CCCc1ccccc1)Cc1cc2[nH]c(=O)c3ccccc3n2c1` [Compound 2-19, 2-[N-Methyl-N-(3-phenylpropyl)aminomethyl]pyrrolo[1,2-a]quinazolin-5(4H)-one], the inhibition at 10 µM was determined as 93%.
For `O=c1[nH]c2cc(CN3CCN(c4ccc(Br)cc4)CC3)cn2c2ccccc12` [Compound 2-20, 2-[4-(4-Bromophenyl)piperazin-1-ylmethyl]pyrrolo[1,2-a]quinazolin-5(4H)-one], the inhibition at 10 µM was 90%.
`O=c1[nH]c2cc(CN3CCc4ccccc4C3)cn2c2ccccc12` [Compound 2-21, 2-(1,2,3,4-Tetrahydroisoquinolin-2(1H)-ylmethyl)pyrrolo[1,2-a]quinazolin-5(4H)-one]: the inhibition at 10 µM worked out at 65%.
As to `CN(C)C1CCN(Cc2cc3[nH]c(=O)c4ccccc4n3c2)CC1` [Compound 2-22, 2-(4-Dimethylaminopiperidin-1-ylmethyl)pyrrolo[1,2-a]quinazolin-5(4H)-one], the inhibition at 10 µM amounted to 97%.
In the case of `O=c1[nH]c2cc(CN3CCN(c4ccncc4)CC3)cn2c2ccccc12` [Compound 2-23, 2-[4-(Pyridin-4-yl)piperazin-1-ylmethyl]pyrrolo[1,2-a]quinazolin-5(4H)-one], the inhibition at 10 µM amounted to 100%.
In the case of `CC1CN(c2ccc(F)cc2)CCN1Cc1cc2[nH]c(=O)c3ccccc3n2c1` (stereo not drawn) [Compound 2-24, 2-[4-(4-Fluorophenyl)-2-methylpiperazin-1-ylmethyl]pyrrolo[1,2-a]quinazolin-5(4H)-one], the inhibition at 10 µM worked out at 99%.
On to `COc1ccccc1N1CCN(Cc2cc3[nH]c(=O)c4ccccc4n3c2)CC1` [Compound 2-25, 2-[4-(2-Methoxyphenyl)piperazin-1-ylmethyl]pyrrolo[1,2-a]quinazolin-5(4H)-one], for which the inhibition at 10 µM came out at 100%.
For `COc1cccc(N2CCN(Cc3cc4[nH]c(=O)c5ccccc5n4c3)CC2)c1` [Compound 2-26, 2-[4-(3-Methoxyphenyl)piperazin-1-ylmethyl]pyrrolo[1,2-a]quinazolin-5(4H)-one] the value was 78%; for `O=c1[nH]c2cc(CN3CCN(C4CCCCC4)CC3)cn2c2ccccc12` [Compound 2-27, 2-(4-Cyclohexylpiperazin-1-ylmethyl)pyrrolo[1,2-a]quinazolin-5(4H)-one], 99%.
Take `O=c1[nH]c2cc(CN3CCN(CC4CC4)CC3)cn2c2ccccc12` [Compound 2-28, 2-(4-Cyclopropylmethylpiperazin-1-ylmethyl)pyrrolo[1,2-a]quinazolin-5(4H)-one]: the inhibition at 10 µM turned out to be 99%.
With `O=c1[nH]c2cc(CN3CCN(c4ccc(C(F)(F)F)cc4)CC3)cn2c2ccccc12` [Compound 2-29, 2-[4-(4-Trifluoromethylphenyl)piperazin-1-ylmethyl]pyrrolo[1,2-a]quinazolin-5(4H)-one], the inhibition at 10 µM came out at 40%.
For `O=c1[nH]c2cc(CN3CCCC(c4ccccc4)C3)cn2c2ccccc12` (stereo not drawn) [Compound 2-31, 2-(3-Phenylpiperidin-1-ylmethyl)pyrrolo[1,2-a]quinazolin-5(4H)-one] the value was 66%; for `Cc1cccc(N2CCN(Cc3cc4[nH]c(=O)c5ccccc5n4c3)CC2)c1` [Compound 2-32, 2-[4-(3-Methylphenyl)piperazin-1-ylmethyl]pyrrolo[1,2-a]quinazolin-5(4H)-one], 97%; for `O=c1[nH]c2cc(CN3CCC(N4CCCCC4)CC3)cn2c2ccccc12` [Compound 2-33, 2-[4-(Piperidin-1-yl)piperidin-1-ylmethyl]pyrrolo[1,2-a]quinazolin-5(4H)-one], 96%.
As to `O=c1[nH]c2cc(CN3CCCC3)cn2c2ccccc12` [Compound 2-34, 2-(Pyrrolidin-1-ylmethyl)pyrrolo[1,2-a]quinazolin-5(4H)-one], the inhibition at 10 µM is 96%.
As for `O=c1[nH]c2cc(CN3CCN(c4nccc5occc45)CC3)cn2c2ccccc12` [Compound 2-36, 2-[4-(Furo[3,2-c]pyridin-4-yl)piperazin-1-ylmethyl]pyrrolo[1,2-a]quinazolin-5(4H)-one], the inhibition at 10 µM was 82%.
For `CC(C)Oc1ccc(N2CCN(Cc3cc4[nH]c(=O)c5ccccc5n4c3)CC2)cc1` [Compound 2-38, 2-[4-(4-Isopropoxyphenyl)piperazin-1-ylmethyl]pyrrolo[1,2-a]quinazolin-5(4H)-one] the value was 98%.
Consider `O=c1[nH]c2cc(CN3CCN(c4ccc(F)cc4)CC3)cn2c2ccsc12` [Compound 2-41, 7-[4-(4-Fluorophenyl)piperazin-1-ylmethyl]pyrrolo[1,2-a]thieno[2,3-e]pyrimidin-4(5H)-one], for which the inhibition at 10 µM amounted to 100%.
With `O=c1[nH]c2cc(CN3CCN(c4ccc(Cl)cc4)CC3)cn2c2ccsc12` [Compound 2-42, 7-[4-(4-Chlorophenyl)piperazin-1-ylmethyl]pyrrolo[1,2-a]thieno[2,3-e]pyrimidin-4(5H)-one], the inhibition at 10 µM was determined as 100%.
Consider `O=c1[nH]c2cc(CN3CCCC3)cn2c2ccsc12` [Compound 2-43, 7-(Pyrrolidin-1-ylmethyl)pyrrolo[1,2-a]thieno[2,3-e]pyrimidin-4(5H)-one], for which the inhibition at 10 µM is 91%.
Take `CN(C)CCOc1cc(F)ccc1N1CCN(Cc2cc3[nH]c(=O)c4ccccc4n3c2)CC1` [Compound 2-46, 2-[4-[2-(2-Dimethylaminoethoxy)-4-fluorophenyl]piperazin-1-ylmethyl]pyrrolo[1,2-a]quinazolin-5(4H)-one]: the inhibition at 10 µM was 85%.
Turning to `O=c1[nH]c2cc(CN3CCC(N4CCOCC4)CC3)cn2c2ccccc12` [Compound 2-47, 2-[4-(Morpholin-4-yl)piperidin-1-ylmethyl]pyrrolo[1,2-a]quinazolin-5(4H)-one], the inhibition at 10 µM was found to be 99%.
`O=c1[nH]c2cc(CN3CCN(c4ccc(O)cc4)CC3)cn2c2ccccc12` [Compound 3-1, 2-[4-(4-Hydroxyphenyl)piperazin-1-ylmethyl]pyrrolo[1,2-a]quinazolin-5(4H)-one]: the inhibition at 10 µM stood at 100%.
For `O=C(c1cc2[nH]c(=O)c3ccccc3n2c1)N1CCCNCC1` [Compound 5-1, 2-(Homopiperazine-1-carbonyl)pyrrolo[1,2-a]quinazolin-5(4H)-one hydrochloride], the inhibition at 10 µM is 99%.
As to `O=C(c1cc2[nH]c(=O)c3ccccc3n2c1)N1CCNCC1` [Compound 5-2, 2-(piperazine-1-carbonyl)pyrrolo[1,2-a]quinazolin-5(4H)-one], the inhibition at 10 µM was 85%.
With `O=C(c1cc2[nH]c(=O)c3ccccc3n2c1)N1CCCN(C(=O)C2CC2)CC1` [Compound 6-1, 2-[4-Cyclopropylcarbonylhomopiperazine-1-carbonyl]pyrrolo[1,2-a]quinazolin-5(4H)-one], the inhibition at 10 µM is 90%.
